This is an account of results in US20250205339A1, “FORMULATION HAVING IMPROVED ABSORBABILITY OF LOW-SOLUBLE AND/OR LOW-MEMBRANE-PERMEABLE DRUG” (MEDRx Co., Ltd., priority 2022, published 2025).

Series [1] can be described thus: Parallel Artificial Membrane Permeation Assay (PAMPA). The format is in vitro ADME. To be noted: Examples 3 and 4, FIG. 1-3; isostearic acid-DODMA, isostearic acid-DODAP, oleic acid-DODMA (5 mM each ingredient); control PBS. The protocol:
In this assay, VZ185 and BI-3663 were used as a drug with low solubility and/or low permeability, and isostearic acid-DODMA, isostearic acid-DODAP and oleic acid-DODMA were used as an ionic liquid. As the control, PBS was used.
Specifically, the permeability of the drugs was evaluated by Parallel Artificial Membrane Permeability Assay-Skin Kit (BioAssay Systems) according to the following procedures. • (1) Preparation of Phosphate Buffer Solution (PBS)
One tablet of Phosphate Buffered Saline Tablet (Sigma) was dissolved in 200 mL of water to prepare PBS. • (2) Preparation of Sample Solution
Also, PBS (475 μL) was mixed with 1 mg/mL of VZ185 solution (25 μL) to prepare 50 μg/mL of a drug-control solution as the control.
4% Lecithin/dodecane solution (5 μL) was then added into each donor well and allowed to stand. PBS (300 μL) was added into each acceptor well and 50 μg/mL of the drug-ionic liquid composition (200 μL) was added into each donor well, and the mixture was incubated in a thermostatic bath at 37° C. […] The sample solution of BI-3663 was prepared according to the same procedure.
In general terms: In PAMPA a lipid-coated filter parts donor from acceptor wells.

In series [2] the test system is Caco-2 cells. As for the experimental part:
In order to study an ionic liquid for enhancing the intestinal absorption effect of a drug with low solubility and/or low permeability, various types of ionic liquids were prepared and the permeability of a drug with low solubility and/or low permeability in compositions comprising the prepared ionic liquid and the drug was evaluated. Specifically, the permeability of a drug was evaluated by the Caco-2 cell membrane permeation assay according to the following procedures for compositions comprising VZ185, which is PROTAC, used as a model drug with low solubility and/or low permeability and each ionic liquid.
Sodium hydroxide (0.4 g) was dissolved in water (100 mL) to prepare 0.1N NaOH solution. MES (2-morpholinoethanesulfonic acid, 1.493 g) and D-glucose (2.453 g) were dissolved in HBSS (+) (free of phenol red) (600 mL), the solution was adjusted to pH 6.5 with 0.1N NaOH solution, and then HBSS (+) (free of phenol red) was further added and adjusted to 700 mL. The solution was sterilized by filtration through 0.22 μm membrane filter to prepare Transport Buffer (A).
HEPES (1.192 g), D-glucose (1.752 g) and BSA (1.25 g) were then dissolved in HBSS (+) (free of phenol red) (400 mL), the solution was adjusted to pH 7.4 with 0.1N NaOH solution, and then HBSS (+) (free of phenol red) was further added and adjusted to 500 mL. The solution was sterilized by filtration through 0.22 μm membrane filter to prepare Transport Buffer (B). • (2) Preparation of Sample Solution
VZ185 (1.5 mg) was mixed with 1% TWEEN 80 (1.5 mL) to 1 mg/ml of VZ185 solution. Each organic acid (0.05 mmol) which is an anion ingredient and each cationic lipid (0.05 mmol) which is a cation ingredient were mixed with Transport Buffer (A) (4.98 mL) to prepare an ionic liquid composition comprising 10 mM each of the ingredients.
1 mg/mL of VZ185 solution (25 μL) and the ionic liquid composition or control composition (475 μL) were mixed to prepare 50 μg/mL of a drug-ionic liquid composition or a drug-control composition. […]

The conditions of series [3]: cited from earlier work.
In series [4] the test system is Caco-2 cells. This is another data set of the same source.
For series [5], the system named is Caco-2 cells. Nature of the series: Cell membrane integrity by permeability of Lucifer Yellow. To be noted: Example 1; after VZ185 permeation test with 10 mM ionic liquid or control composition (5 mM where labelled); 60 min; standard value <1%.
The subject of series [6] is Caco-2 cells. Nature of the series: Cell membrane integrity by Trans-Epithelial Electrical Resistance (TEER). The conditions noted are these: Example 1; Caco-2 monolayer exposed to VZ185 50 μg/mL with 10 mM ionic liquid or control composition (5 mM where labelled); standard value >1000Ω.
Series [7] deals with Caco-2 cells. The source holds these as a separate data set.

A word on the Solubility: it is the dissolved amount per volume that the medium holds.

In brackets after ≈: the same amount, converted by molar mass. Like-named read-outs stand apart in the source and are kept apart here.

For `COc1cc(C(=O)NCCOCCOCCOCCC(=O)Nc2cccc3c2C(=O)N(C2CCC(=O)NC2=O)C3=O)ccc1Nc1ncc(C(F)(F)F)c(Oc2cccc3c2C(=O)CC3)n1` (stereo not shown) [BI-3663], in series [1], the “absorbability of the drug by the PAMPA with ionic liquids” value (“absorbability of the drug by the PAMPA” below) is given as “remarkably improved”. Also, the “absorbability of BI-3663 by use of the ionic liquids” value in the series on Caco-2 cells [2] was “remarkably improved”. Besides, the Solubility in series [3] is <1 µg/mL.
`CC(O)C(=O)O` (stereo not shown) [Lactic acid, lactic acid]: the TEER in the series on Caco-2 cells [4] (human, 10 mM) is 550 Ω.
For `O=C([O-])CCCCCCCNC(=O)c1ccccc1O.[Na+]` [SNAC, salcaprozate sodium], the “Lucifer Yellow (%)” value with Caco-2 cells [5] is 4.3%. The TEER with Caco-2 cells [6] was 210 Ω.
For `CCCCCCCC/C=C\CCCCCCCC(=O)[O-].[Na+]` [Sodium oleate, sodium oleate], in the series with Caco-2 cells [6], the TEER is given as 100 Ω.
As for `COc1cc(-c2cn(C)c(=O)c3cnccc23)cc(OC)c1CN1CCN(CCCCCOc2cc(-c3scnc3C)ccc2CNC(=O)[C@@H]2C[C@@H](O)CN2C(=O)[C@@H](NC(=O)C2(F)CC2)C(C)(C)C)CC1` [VZ185], the “absorbability of the drug by the PAMPA” value in series [1] is “remarkably improved”. For the same compound, the “absorbability of VZ185 by use of the ionic liquids” value in the series with Caco-2 cells [2] is given as “remarkably improved”. Also, in series [3], the Solubility is 85 µg/mL (≈ 85.4 µM).
`c1ccc(-c2ccc(C(c3ccccc3)n3ccnc3)cc2)cc1` (stereo not shown) [bifonazole]: the “absorbability of the drug by the PAMPA” value in series [1] was “remarkably improved”. The “absorbability of bifonazole by use of the ionic liquid” value with Caco-2 cells [2] is on record as “remarkably improved”.
Consider Oleic acid-Arginine, for which the TEER in the series on Caco-2 cells [4] is 3560 Ω. Moreover, the “Lucifer Yellow (%)” value in the series on Caco-2 cells [7] worked out at 0.1%.
With Oleic acid-Trometamol, the TEER with Caco-2 cells [4] is 4750 Ω. Further, in the series with Caco-2 cells [7], the “Lucifer Yellow (%)” value stood at 0.1%.
